Laboratory results published in US20240343733A1, “COMPOUNDS FOR TARGETING DEGRADATION OF IRAK4 PROTEINS” (BIOGEN MA INC., priority 2021, published 2024).

What was measured:
[1] = biological target: T1, IRAK4 (Homo sapiens, UniProt Q9NWZ3); assay: IRAK4 Degradation Assay, HiBiT Method; assay type: cell-based; settings: 293T cells expressing HiBiT-tagged IRAK4, 6 hours
T1 construct: 293Tcells expressing HiBiT-tagged IRAK4 were then added into 384-well plates
T1 sequence (Q9NWZ3 1-460): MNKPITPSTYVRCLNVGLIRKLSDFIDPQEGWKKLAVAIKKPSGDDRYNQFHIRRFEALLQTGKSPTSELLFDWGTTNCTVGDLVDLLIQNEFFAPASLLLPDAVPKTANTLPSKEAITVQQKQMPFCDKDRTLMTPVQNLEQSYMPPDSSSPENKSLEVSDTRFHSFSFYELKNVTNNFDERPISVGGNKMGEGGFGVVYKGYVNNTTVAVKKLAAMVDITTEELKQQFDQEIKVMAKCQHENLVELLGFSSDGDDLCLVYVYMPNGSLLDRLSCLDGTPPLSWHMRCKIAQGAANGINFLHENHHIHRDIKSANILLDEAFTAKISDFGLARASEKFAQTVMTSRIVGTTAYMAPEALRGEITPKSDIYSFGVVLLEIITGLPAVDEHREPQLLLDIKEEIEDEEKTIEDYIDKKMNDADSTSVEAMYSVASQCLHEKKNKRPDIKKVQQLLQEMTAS
Outline: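 293T cells with HiBiT knocked in at the C-terminus of endogenous IRAK4, 10,000 per well, treated 6 h at 37 °C with an 11-point half-log series ([…]), in duplicate. Remaining IRAK4 read by Nano-Glo HiBiT lytic luminescence against DMSO-only and media-only controls.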

[2] = biological target: T2, IKZF1 (Homo sapiens, UniProt Q13422); assay: IKZF1 Degradation Assay, HiBiT Method; assay type: cell-based; settings: NCIH929 cells expressing HiBiT-tagged IKZF1, 6 hours, top concentration 10 μM
T2 construct: endogenously expressing IKZF1 with HiBiT fusion tag via CRISPR
Outline: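 NCIH929 cells expressing HiBiT-tagged IKZF1, 15000 cells/well in RPMI with 10% FBS and 0.05 mM 2-mercaptoethanol, exposed to compound 6 h at 37 °C. Remaining IKZF1 quantified by lytic HiBiT luminescence, normalised to untreated-cell and medium-only controls.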

T2 sequence (Q96SW2 whole entry partner, the tested form may be a part): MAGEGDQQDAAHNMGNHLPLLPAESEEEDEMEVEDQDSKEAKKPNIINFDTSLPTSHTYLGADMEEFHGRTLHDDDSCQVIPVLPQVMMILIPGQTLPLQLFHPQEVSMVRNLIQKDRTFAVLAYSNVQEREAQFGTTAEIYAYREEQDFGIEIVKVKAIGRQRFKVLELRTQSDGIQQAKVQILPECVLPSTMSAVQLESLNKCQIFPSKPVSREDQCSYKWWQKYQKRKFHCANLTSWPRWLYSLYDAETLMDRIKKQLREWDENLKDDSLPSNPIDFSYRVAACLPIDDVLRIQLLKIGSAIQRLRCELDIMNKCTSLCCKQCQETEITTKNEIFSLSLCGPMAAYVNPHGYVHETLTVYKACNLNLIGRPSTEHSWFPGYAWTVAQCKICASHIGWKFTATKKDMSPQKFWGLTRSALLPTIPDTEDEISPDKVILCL
T2 sequence (Q16531 whole entry partner, the tested form may be a part): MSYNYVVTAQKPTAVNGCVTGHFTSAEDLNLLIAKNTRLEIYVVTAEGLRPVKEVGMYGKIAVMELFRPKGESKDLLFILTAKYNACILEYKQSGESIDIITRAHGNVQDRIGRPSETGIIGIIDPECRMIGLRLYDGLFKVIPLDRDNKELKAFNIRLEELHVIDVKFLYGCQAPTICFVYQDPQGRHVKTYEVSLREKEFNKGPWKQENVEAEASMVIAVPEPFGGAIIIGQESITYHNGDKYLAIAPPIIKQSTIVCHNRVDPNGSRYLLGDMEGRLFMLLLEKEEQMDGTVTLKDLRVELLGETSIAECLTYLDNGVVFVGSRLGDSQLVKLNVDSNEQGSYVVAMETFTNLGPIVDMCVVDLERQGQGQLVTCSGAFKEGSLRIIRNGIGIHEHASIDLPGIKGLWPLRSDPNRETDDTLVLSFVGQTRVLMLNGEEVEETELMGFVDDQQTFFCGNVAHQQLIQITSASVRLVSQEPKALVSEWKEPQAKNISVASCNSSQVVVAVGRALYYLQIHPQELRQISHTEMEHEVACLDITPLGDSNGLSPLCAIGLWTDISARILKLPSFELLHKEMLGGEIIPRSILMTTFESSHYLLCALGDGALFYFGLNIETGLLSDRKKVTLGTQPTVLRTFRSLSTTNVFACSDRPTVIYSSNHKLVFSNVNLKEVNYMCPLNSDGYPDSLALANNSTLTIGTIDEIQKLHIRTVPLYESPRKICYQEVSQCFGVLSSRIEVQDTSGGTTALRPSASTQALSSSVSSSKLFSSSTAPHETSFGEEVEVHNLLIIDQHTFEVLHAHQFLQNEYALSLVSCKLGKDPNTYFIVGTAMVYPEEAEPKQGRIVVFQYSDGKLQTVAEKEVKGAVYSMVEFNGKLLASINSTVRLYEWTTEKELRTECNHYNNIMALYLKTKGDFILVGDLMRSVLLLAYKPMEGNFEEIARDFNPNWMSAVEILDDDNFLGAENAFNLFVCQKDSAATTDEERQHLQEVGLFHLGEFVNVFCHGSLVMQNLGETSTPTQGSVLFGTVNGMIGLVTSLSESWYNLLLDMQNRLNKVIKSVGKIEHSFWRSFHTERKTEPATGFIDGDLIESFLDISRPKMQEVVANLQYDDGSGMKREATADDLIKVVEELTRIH
T2 sequence (Q13422 whole entry, the tested form may be a part): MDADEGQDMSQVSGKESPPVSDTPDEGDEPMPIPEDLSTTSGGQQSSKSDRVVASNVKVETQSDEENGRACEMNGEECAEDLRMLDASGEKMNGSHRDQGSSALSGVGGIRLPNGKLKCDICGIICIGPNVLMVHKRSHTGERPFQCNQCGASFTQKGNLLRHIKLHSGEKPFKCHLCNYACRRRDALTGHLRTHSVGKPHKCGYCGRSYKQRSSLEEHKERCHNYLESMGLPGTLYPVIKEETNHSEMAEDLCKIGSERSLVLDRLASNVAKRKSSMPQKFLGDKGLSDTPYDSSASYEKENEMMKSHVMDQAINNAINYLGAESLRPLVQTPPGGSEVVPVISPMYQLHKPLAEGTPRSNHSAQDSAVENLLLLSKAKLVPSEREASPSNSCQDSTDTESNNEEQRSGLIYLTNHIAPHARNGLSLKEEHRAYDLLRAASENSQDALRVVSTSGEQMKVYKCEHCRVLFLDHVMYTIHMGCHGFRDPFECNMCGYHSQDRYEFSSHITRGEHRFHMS

SMILES	DC50 [1] [nM]	DC50 [2] [nM]
CC(C)Oc1cc2nc([C@H]3CC[C@H](CN4CCC(c5ccc6c(c5)n(C)c(=O)n6C5CCC(=O)NC5=O)CC4)CC3)cn2cc1C(=O)Nc1cnn2cccnc12 (stereo partly drawn) [Compound 48, 2-[4-[[4-[1-(2,6-dioxo-3-piperidyl)-3-methyl-2-oxo-benzimidazol-5-yl]-1-piperidyl]methyl]cyclohexyl]-7-isopropoxy-N-pyrazolo[1,5-a]pyrimidin-3-yl-imidazo[1,2-a]pyridine-6-carboxamide]	< 10	> 10000
CC(C)Oc1cc2nc([C@H]3CC[C@H](CN4CCC(c5ccc6c(c5)n(C)c(=O)n6C5CCC(=O)NC5=O)CC4)CC3)cn2cc1C(=O)Nc1cccn([C@H]2C[C@H]2F)c1=O (stereo partly drawn) [Compound 169, 2-((1R,4S)-4-((4-(1-(2,6-dioxopiperidin-3-yl)-3-methyl-2-oxo-2,3-dihydro-1H-benzo[d]imidazol-5-yl)piperidin-1-yl)methyl)cyclohexyl)-N-(1-((1S,2R)-2-fluorocyclopropyl)-2-oxo-1,2-dihydropyridin-3-yl)-7-isopropoxyimidazo[1,2-a]pyridine-6-carboxamide]	< 10	–
